We go through seven compounds from patent US8093256B2, “Use of 8-substituted-6,7,8,9-tetrahydropyrimido[1,2-a] pyrimidin-4-one derivatives” (Sanofi-Aventis, priority 2003, dated 2012).

The target of one series is GSK3β (Homo sapiens, UniProt P49841). The experiment in a line: Inhibitory activity against GSK3β (33P-ATP phosphorylation of prephosphorylated GS1 peptide, two protocols). Format: biochemical. As to the method:
Inhibitory Activity of the Medicament of the Present Invention Against GSK3β Two different protocols can be used. In a first protocol: 7.5 μM of prephosphorylated GS1 peptide and 10 μM ATP (containing 300,000 cpm of 33P-ATP) were incubated in 25 mM Tris-HCl, pH 7.5, 0.6 mM DTT, 6 mM MgCl2, 0.6 mM EGTA, 0.05 mg/ml BSA buffer for 1 hour at room temperature in the presence of GSK3beta (total reaction volume: 100 microliters). In a second protocol: 4.1 μM of prephosphorylated GS1 peptide and 42 μM ATP (containing 260,000 cpm 33P-ATP) were incubated in 80 mM Mes-NaOH, pH 6.5, 1 mM Mg acetate, 0.5 mM EGTA, 5 mM 2-mercaptoethanol, 0.02% Tween 20, 10% glycerol buffer for 2 hours at room temperature in the presence of GSK3beta. Inhibitors were solubilized in DMSO (final solvent concentration in the reaction medium, 1%). The reaction was stopped with 100 microliters of a solution made of 25 g polyphosphoric acid (85% P2O5), 126 ml 85% H3PO4, H2O to 500 ml and then diluted to 1:100 before use. An aliquot of the reaction mixture was then transferred to Whatman P81 cation exchange filters and rinsed with the solution described above. Incorporated 33P radioactivity was determined by liquid scintillation spectrometry. The phosphorylated GS-1 peptide had the following sequence: NH2-[…](P)EDEE-COOH.

Structures can show the parent of a compound that is named as a salt.

Chain of GSK3β (P49841 whole entry, species assumed): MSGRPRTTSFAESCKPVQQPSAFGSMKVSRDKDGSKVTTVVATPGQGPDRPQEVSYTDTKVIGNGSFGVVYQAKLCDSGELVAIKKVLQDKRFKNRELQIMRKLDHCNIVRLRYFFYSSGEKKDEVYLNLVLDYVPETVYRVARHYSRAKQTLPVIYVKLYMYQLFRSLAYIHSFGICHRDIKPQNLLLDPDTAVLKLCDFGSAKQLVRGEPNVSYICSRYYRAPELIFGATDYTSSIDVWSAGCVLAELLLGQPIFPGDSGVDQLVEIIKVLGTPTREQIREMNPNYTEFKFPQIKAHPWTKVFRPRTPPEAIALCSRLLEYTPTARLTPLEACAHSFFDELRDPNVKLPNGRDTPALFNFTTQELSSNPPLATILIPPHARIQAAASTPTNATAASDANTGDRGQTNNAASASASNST

Take `O=C(CN1c2nc(-c3ccncc3)cc(=O)n2CCC1c1ccncc1)c1cccc(Br)c1` (stereo not shown) [Compound No. 15, 9-[2-(3-Bromo-phenyl)-2-oxo-ethyl]-2,8-dipyridin-4-yl-6,7,8,9-tetrahydro-pyrimido[1,2-a]pyrimidin-4-one hydrochloride (1:2)]: at GSK3β, the IC50 stood at 7 nM.

`O=c1cc(-c2ccncc2)nc2n1CCC(c1ccccc1)N2CC(O)c1cccc(Br)c1` (stereo not shown) [compound 23, 9-[2-Hydroxy-2-(3-bromo-phenyl)-ethyl]-8-phenyl-2-pyridin-4-yl-6,7,8,9-tetrahydro-pyrimido[1,2-a]pyrimidin-4-one] yielded a melting point of 170 to 172 °C.

On to `O=c1cc(-c2ccncc2)nc2n1CCC(c1ccccc1)N2CC(O)c1ccc(Cl)cc1` (stereo not shown) [compound 24, 9-[2-Hydroxy-2-(4-chloro-phenyl)-ethyl]-8-phenyl-2-pyridin-4-yl-6,7,8,9-tetrahydro-pyrimido[1,2-a]pyrimidin-4-one], for which the melting point lay in the range of 220 to 222 °C.

Compound `O=c1cc(-c2ccncc2)nc2n1CCC(c1ccncc1)N2CC(O)c1cccc(F)c1` (stereo not shown) [compound 25, 9-[2-(3-Fluoro-phenyl)-2-hydroxy-ethyl]-2,8-dipyridin-4-yl-6,7,8,9-tetrahydro-pyrimido[1,2-a]pyrimidin-4-one] returned a melting point of 218 to 220 °C.

As for `O=c1cc(-c2ccncc2)nc2n1CCC(c1ccccc1)N2CC(O)c1ccc(F)cc1` (stereo not shown) [compound 26, 9-[2-Hydroxy-2-(4-fluoro-phenyl)-ethyl]-8-phenyl-2-pyridin-4-yl-6,7,8,9-tetrahydro-pyrimido[1,2-a]pyrimidin-4-one], the melting point lay within 201 to 203 °C.

In turn, `O=c1cc(-c2ccncc2)nc2n1CCC(c1ccccc1)N2CC(O)c1ccc(-c2ccccc2)cc1` (stereo not shown) [compound 27, 9-[2-Hydroxy-2-(4-phenyl-phenyl)-ethyl]-8-phenyl-2-pyridin-4-yl-6,7,8,9-tetrahydro-pyrimido[1,2-a]pyrimidin-4-one] had a melting point of 145 to 147 °C.

`O=c1cc(-c2ccncc2)nc2n1CCC(c1ccccc1)N2CC(O)c1ccc2ccccc2c1` (stereo not shown) [compound 28, 9-[2-Hydroxy-2-naphthalen-2-yl-ethyl]-8-phenyl-2-pyridin-4-yl-6,7,8,9-tetrahydro-pyrimido[1,2-a]pyrimidin-4-one] had a melting point of 190 to 192 °C.

Broadly, the IC50 is the concentration that inhibits the measured activity by half. A high value points to lower potency. The term melting point denotes the temperature of the solid-liquid transition.
